From patent US20100069436A1, “IMIDAZOLE COMPOUNDS HAVING AN ANTIINFLAMMATORY EFFECT” (Merckle, priority 2006, published 2010)

Target: p38α MAP kinase (Homo sapiens, UniProt Q16539)
Assay: Assay to determine the inhibition of p38α MAP kinase (phosphorylation of ATF-2, IC50-values)
Assay type: biochemical
Conditions: ATF-2 coated microtiter plates, 10 ng activated p38α, 100 μM ATP, 1 h at 37° C.; read-out: IC50, inhibition of the phosphorylation of ATF-2 by p38a MAP kinase
Protocol: Assay to determine the inhibition of p38α MAP kinase (IC50-values)
Microtiter plates were coated with the p38 MAP kinase substrate ATF-2 by incubating 50 μl of 20 μg/ml ATF-2 for one hour at 37° C. After the plates were washed three times with water, 50 μl of kinase mixture (=50 mM Tris-HCl, 10 mM MgCl2, 10 mM β-glycerol phosphate, 10 μg/ml BSA, 1 mM DTT, 100 μM ATP, 100 μM […], 10 ng activated p38α) without an with increasing inhibitor concentrations were added into the wells and incubated for one hour at 37° C. The plates were washed three times with water and incubated with an anti-phospho-ATF-2 antibody for one hour at 37°. Thereafter, the plates were again washed three times with water and incubated with a goat, alkaline phosphatase-labeled anti-rabbit IgG, for one hour at 37° C. The plates were washed and incubated with 100 μl of a solution containing the phosphatase substrate 4-nitrophenolphosphate (3 mM 4-NPP, 50 mM NaHCO3, 50 mM MgCl2) for 1.5 hours at 37° C. Formation of 4-nitrophenolate was measured at 405 nm using a microtiter plate reader. Based on the inhibitor-concentration/response curves, IC50-values were determined.

Sequence of p38α MAP kinase (Q16539 whole entry): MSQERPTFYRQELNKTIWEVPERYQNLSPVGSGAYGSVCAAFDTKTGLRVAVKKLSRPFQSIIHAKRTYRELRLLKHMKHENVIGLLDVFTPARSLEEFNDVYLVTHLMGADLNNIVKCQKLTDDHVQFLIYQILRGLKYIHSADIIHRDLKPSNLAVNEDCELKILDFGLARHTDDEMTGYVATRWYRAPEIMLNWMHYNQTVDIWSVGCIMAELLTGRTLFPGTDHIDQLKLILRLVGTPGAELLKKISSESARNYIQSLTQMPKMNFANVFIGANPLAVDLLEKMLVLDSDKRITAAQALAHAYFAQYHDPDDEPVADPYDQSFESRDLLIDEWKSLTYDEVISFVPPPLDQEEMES

Structure (SMILES) | IC50 [µM]
COCCn1c(SC)nc(-c2ccc(F)cc2)c1-c1ccnc(NCC2CCCCC2O)c1 (centres unmarked) [35 (1)] | < 1
COCCn1c(S(C)(=O)=O)nc(-c2ccc(F)cc2)c1-c1ccnc(NC2CCCCC2O)c1 (centres unmarked) [35 (4)] | 1 to 10
CCN1CCCC1CNc1cc(-c2c(-c3ccc(F)cc3)nc(SC)n2C)ccn1 (centres unmarked) [Example 1, (1-Ethyl-pyrrolidin-2-ylmethyl)-{4-[5-(4-fluoro-phenyl)-3-methyl-2-methylsulfanyl-3H-imidazol-4-yl]-pyridin-2-yl}-amine] | > 10
CCN1CCCC1CNc1cc(-c2c(-c3ccc(F)cc3)nc(SC)n2CCOC)ccn1 (centres unmarked) [Example 2] | < 1
CSc1nc(-c2ccc(F)cc2)c(-c2ccnc(NC3CC(C)(C)NC(C)(C)C3)c2)n1C [Example 3] | 1 to 10
COCCn1c(SC)nc(-c2ccc(F)cc2)c1-c1ccnc(NC2CC(C)(C)NC(C)(C)C2)c1 [Example 4, {4-[5-(4-Fluoro-phenyl)-3-(2-methoxy-ethyl)-2-methylsulfanyl-3H-imidazol-4-yl]-pyridin-2-yl}-(2,2,6,6-tetramethyl-piperidin-4-yl)-amine] | < 1
CSc1nc(-c2ccc(F)cc2)c(-c2ccnc(NC3CCN(Cc4ccccc4)CC3)c2)n1C [Example 5, (1-Benzyl-piperidin-4-yl)-{4-[5-(4-fluoro-phenyl)-3-methyl-2-methylsulfanyl-3H-imidazol-4-yl]-pyridin-2-yl}-amine] | 1 to 10
COCCn1c(SC)nc(-c2ccc(F)cc2)c1-c1ccnc(NC2CCN(Cc3ccccc3)CC2)c1 [Example 6, (1-Benzyl-piperidin-4-yl)-{4-[5-(4-fluoro-phenyl)-3-(2-methoxy-ethyl)-2-methylsulfanyl-3H-imidazol-4-yl]-pyridin-2-yl}-amine] | 1 to 10
CCN1CCCC1CNc1cc(-c2c(-c3ccc(F)cc3)nc([S+](C)[O-])n2C)ccn1 (centres unmarked) [Example 7, (1-Ethyl-pyrrolidin-2-ylmethyl)-{4-[5-(4-fluoro-phenyl)-2-methanesulfinyl-3-methyl-3H-imidazol-4-yl]-pyridin-2-yl}-amine] | > 10
Cn1c([S+](C)[O-])nc(-c2ccc(F)cc2)c1-c1ccnc(NC2CC(C)(C)NC(C)(C)C2)c1 (centres unmarked) [Example 9, {4-[5-(4-Fluoro-phenyl)-2-methanesulfinyl-3-methyl-3H-imidazol-4-yl]-pyridin-2-yl}-(2,2,6,6-tetramethyl-piperidin-4-yl)-amine] | > 10
COCCn1c([S+](C)[O-])nc(-c2ccc(F)cc2)c1-c1ccnc(NC2CC(C)(C)NC(C)(C)C2)c1 (centres unmarked) [Example 10] | > 10
Cn1c([S+](C)[O-])nc(-c2ccc(F)cc2)c1-c1ccnc(NC2CCN(Cc3ccccc3)CC2)c1 (centres unmarked) [Example 11, (1-Benzyl-piperidin-4-yl)-{4-[5-(4-fluoro-phenyl)-2-methanesulfinyl-3-methyl-3H-imidazol-4-yl]-pyridin-2-yl}-amine] | > 10
COCCn1c([S+](C)[O-])nc(-c2ccc(F)cc2)c1-c1ccnc(NC2CCN(Cc3ccccc3)CC2)c1 (centres unmarked) [Example 12, (1-Benzyl-piperidin-4-yl)-{4-[5-(4-fluoro-phenyl)-2-methanesulfinyl-3-(2-methoxy-ethyl)-3H-imidazol-4-yl]-pyridin-2-yl}-amine] | 1 to 10
CSc1nc(-c2ccc(F)cc2)c(-c2ccnc(NCC(C)O)c2)n1C (centres unmarked) [Example 13, 1-{4-[5-(4-Fluoro-phenyl)-3-methyl-2-methylsulfanyl-3H-imidazol-4-yl]-pyridin-2-ylamino}-propan-2-ol] | < 1
COCCn1c(SC)nc(-c2ccc(F)cc2)c1-c1ccnc(NCC(C)O)c1 (centres unmarked) [Example 14, 1-{4-[5-(4-Fluoro-phenyl)-3-(2-methoxy-ethyl)-2-methylsulfanyl-3H-imidazol-4-yl]-pyridin-2-ylamino}-propan-2-ol] | < 1
CSc1nc(-c2ccc(F)cc2)c(-c2ccnc(NC3CCC(O)CC3)c2)n1C (centres unmarked) [Example 15, 4-{4-[5-(4-Fluoro-phenyl)-3-methyl-2-methylsulfanyl-3H-imidazol-4-yl]-pyridin-2-ylamino}-cyclohexanol] | < 1

Structure (SMILES) | IC50 [µM]
COCCn1c(SC)nc(-c2ccc(F)cc2)c1-c1ccnc(NC2CCC(O)CC2)c1 (centres unmarked) [Example 16, 4-{4-[5-(4-Fluoro-phenyl)-3-(2-methoxy-ethyl)-2-methylsulfanyl-3H-imidazol-4-yl]-pyridin-2-ylamino}-cyclohexanol] | < 1
CSc1nc(-c2ccc(F)cc2)c(-c2ccnc(NC3CCCCC3O)c2)n1C (centres unmarked) [Example 17, 2-{4-[5-(4-Fluoro-phenyl)-3-methyl-2-methylsulfanyl-3H-imidazol-4-yl]-pyridin-2-ylamino}-cyclohexanol] | 1 to 10
CSc1nc(-c2ccc(F)cc2)c(-c2ccnc(NC3CCCCC3O)c2)n1C (centres unmarked) [Example 18, 2-{4-[5-(4-Fluoro-phenyl)-3-methyl-2-methylsulfanyl-3H-imidazol-4-yl]-pyridin-2-ylamino}-cyclohexanol] | < 1
COCCn1c(SC)nc(-c2ccc(F)cc2)c1-c1ccnc(NC2CCCCC2O)c1 (centres unmarked) [Example 19, 2-{4-[5-(4-Fluoro-phenyl)-3-(2-methoxy-ethyl)-2-methylsulfanyl-3H-imidazol-4-yl]-pyridin-2-ylamino}-cyclohexanol] | 1 to 10
CC(O)CNc1cc(-c2c(-c3ccc(F)cc3)nc([S+](C)[O-])n2C)ccn1 (centres unmarked) [Example 20, 1-{4-[5-(4-Fluoro-phenyl)-2-methanesulfinyl-3-methyl-3H-imidazol-4-yl]-pyridin-2-ylamino}-propan-2-ol] | > 10
COCCn1c([S+](C)[O-])nc(-c2ccc(F)cc2)c1-c1ccnc(NCC(C)O)c1 (centres unmarked) [Example 21, 1-{4-[5-(4-Fluoro-phenyl)-2-methanesulfinyl-3-(2-methoxy-ethyl)-3H-imidazol-4-yl]-pyridin-2-ylamino}-propan-2-ol] | 1 to 10
Cn1c([S+](C)[O-])nc(-c2ccc(F)cc2)c1-c1ccnc(NC2CCC(O)CC2)c1 (centres unmarked) [Example 22, 4-{4-[5-(4-Fluoro-phenyl)-2-methanesulfinyl-3-methyl-3H-imidazol-4-yl]-Pyridin-2-ylamino}-cyclohexanol] | < 1
COCCn1c([S+](C)[O-])nc(-c2ccc(F)cc2)c1-c1ccnc(NC2CCC(O)CC2)c1 (centres unmarked) [Example 23, 4-{4-[5-(4-Fluoro-phenyl)-2-methanesulfinyl-3-(2-methoxy-ethyl)-3H-imidazol-4-yl]-pyridin-2-ylamino}-cyclohexanol] | < 1
Cn1c([S+](C)[O-])nc(-c2ccc(F)cc2)c1-c1ccnc(NC2CCCCC2O)c1 (centres unmarked) [Example 24, 2-{4-[5-(4-Fluoro-phenyl)-2-methanesulfinyl-3-methyl-3H-imidazol-4-yl]pyridin-2-ylamino}-cyclohexanol] | 1 to 10
COCCn1c([S+](C)[O-])nc(-c2ccc(F)cc2)c1-c1ccnc(NC2CCCCC2O)c1 (centres unmarked) [Example 25, 2-{4-[5-(4-Fluoro-phenyl)-2-methanesulfinyl-3-(2-methoxy-ethyl)-3H-imidazol-4-yl]-pyridin-2-ylamino}-cyclohexanol] | 1 to 10
COCCn1c(SC)nc(-c2ccc(F)cc2)c1-c1ccnc(NCC(C)=O)c1 [Example 26, 1-{4-[5-(4-Fluoro-phenyl)-3-(2-methoxy-ethyl)-2-methylsulfanyl-3H-imidazol-4-yl]-pyridin-2-ylamino}-propan-2-one] | 1 to 10
CSc1nc(-c2ccc(F)cc2)c(-c2ccnc(NC3CCC(=O)CC3)c2)n1C [Example 27, 4-{4-[5-(4-Fluoro-phenyl)-3-methyl-2-methylsulfanyl-3H-imidazol-4-yl]-pyridin-2-ylamino}-cyclohexanone] | 1 to 10
CSc1nc(-c2ccc(F)cc2)c(-c2ccnc(NC3CCCCC3=O)c2)n1C (centres unmarked) [Example 28, 2-{4-[5-(4-Fluoro-phenyl)-3-methyl-2-methylsulfanyl-3H-imidazol-4-yl]-pyridin-2-ylamino}-cyclohexanone] | < 1
COCCn1c(SC)nc(-c2ccc(F)cc2)c1-c1ccnc(NC(=O)C2CCOCC2)c1 [Example 32, Tetrahydro-pyran-4-carboxylic acid {4-[5-(4-fluoro-phenyl)-3-(2-methoxy-ethyl)-2-methylsulfanyl-3H-imidazol-4-yl]-pyridin-2-yl}-amide] | < 1
COCCn1c([S+](C)[O-])nc(-c2ccc(F)cc2)c1-c1ccnc(NC(=O)C2CCOCC2)c1 (centres unmarked) [Example 33, Tetrahydro-pyran-4-carboxylic acid {4-[5-(4-fluoro-phenyl)-2-methanesulfinyl-3-(2-methoxy-ethyl)-3H-imidazol-4-yl]-pyridin-2-yl}-amide] | < 1
COCCn1c(SC)nc(-c2ccc(F)cc2)c1-c1ccnc(NC2CCCCC2O)c1 (centres unmarked) [Example 35 (2)] | < 1
